From patent publication US20110009351A1, “SCREENING ASSAY TO IDENTIFY CORRECTORS OF PROTEIN TRAFFICKING DEFECTS” (Traffick Therepeutics Inc., priority 2007, published 2011)
Counter-ions that a name gives are not always drawn. Like-named read-outs stand apart in the source and are kept apart here. One block for each compound: values may come before it.

Tests used:
F508del CFTR = target: T1, F508del CFTR (Homo sapiens, UniProt P13569, DEL508-508); experiment: YFP fluorescence quenching functional assay (iodide influx), HEK293 cells with F508del CFTR and halide sensitive YFP; type: cell-based; settings: 10 μM, 24 h; for remaining activity at 10 µM: HEK293, read-out: % YFP quench; for remaining activity at 10 µM / % YFP quench: nc = 100% pc = 69.2
T1 construct: expressed in transfected cells; host or cells: HEK293 Griptite cells stably expressing F508del CFTR, transiently transfected with halide-sensitive eYFP
T1 sequence (P13569 with tags, fused parts or gaps DEL508-508): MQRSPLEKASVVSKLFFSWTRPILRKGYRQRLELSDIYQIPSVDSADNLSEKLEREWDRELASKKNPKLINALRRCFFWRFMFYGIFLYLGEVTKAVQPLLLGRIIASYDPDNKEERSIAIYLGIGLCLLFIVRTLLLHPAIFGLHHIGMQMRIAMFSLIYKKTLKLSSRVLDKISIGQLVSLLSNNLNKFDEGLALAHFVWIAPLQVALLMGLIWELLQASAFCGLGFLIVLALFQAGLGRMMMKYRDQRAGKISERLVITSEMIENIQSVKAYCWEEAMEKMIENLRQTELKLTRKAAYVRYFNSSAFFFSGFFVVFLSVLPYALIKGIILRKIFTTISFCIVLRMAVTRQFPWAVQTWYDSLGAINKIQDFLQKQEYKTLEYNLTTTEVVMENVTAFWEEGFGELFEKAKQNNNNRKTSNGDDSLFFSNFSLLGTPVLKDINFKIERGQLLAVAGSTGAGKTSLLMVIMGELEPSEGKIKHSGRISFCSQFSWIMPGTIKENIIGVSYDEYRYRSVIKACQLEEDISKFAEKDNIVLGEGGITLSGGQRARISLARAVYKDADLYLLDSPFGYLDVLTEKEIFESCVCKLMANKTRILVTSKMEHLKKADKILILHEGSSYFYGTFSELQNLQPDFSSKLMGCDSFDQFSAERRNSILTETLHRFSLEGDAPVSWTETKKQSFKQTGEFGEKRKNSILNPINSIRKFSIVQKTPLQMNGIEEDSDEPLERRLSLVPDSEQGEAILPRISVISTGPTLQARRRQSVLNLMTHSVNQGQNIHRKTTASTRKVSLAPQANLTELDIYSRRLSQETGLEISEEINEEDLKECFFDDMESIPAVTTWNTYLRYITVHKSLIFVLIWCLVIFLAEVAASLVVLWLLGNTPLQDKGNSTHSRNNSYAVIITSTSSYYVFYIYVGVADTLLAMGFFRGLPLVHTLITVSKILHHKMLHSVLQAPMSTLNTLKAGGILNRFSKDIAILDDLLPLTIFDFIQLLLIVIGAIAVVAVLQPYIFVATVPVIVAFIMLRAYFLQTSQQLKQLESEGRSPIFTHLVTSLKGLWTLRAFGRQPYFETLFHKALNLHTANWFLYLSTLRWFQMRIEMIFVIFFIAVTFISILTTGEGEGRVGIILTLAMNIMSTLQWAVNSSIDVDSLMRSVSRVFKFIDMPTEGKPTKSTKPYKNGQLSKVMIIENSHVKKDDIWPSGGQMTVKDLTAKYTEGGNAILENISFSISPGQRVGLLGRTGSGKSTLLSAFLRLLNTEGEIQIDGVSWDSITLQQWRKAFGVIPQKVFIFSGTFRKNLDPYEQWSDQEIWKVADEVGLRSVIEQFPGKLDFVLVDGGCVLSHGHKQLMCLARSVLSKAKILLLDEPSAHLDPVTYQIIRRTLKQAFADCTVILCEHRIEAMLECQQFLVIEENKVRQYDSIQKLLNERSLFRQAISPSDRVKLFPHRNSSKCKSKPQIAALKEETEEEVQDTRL
Experimental: In addition to the MDS compounds, the 1120 Prestwick Library compounds were screened. (See FIGS. 7 to 12.) Of the compounds, one qualified as a “strong” hit, 3 as “medium” hits and 57 as “weak” hits. The Z score for the assay was 0.62. The top 50 hits were further tested in a counter screen in which the halide sensitive fluorescent compound (YFP) was expressed inside cells (Table 2). After incubation with the test compounds the ability of the cells to uptake iodide was measure by decreasing YFP fluorescence. In these cells this can only occur if functional CFTR is present at the cell surface (FIG. 7). The hits were also tested for the appearance of the Band C form of CFTR. […] The functionality of the compounds was further studied by the use of Iodide efflux assays for each compound in both BHK and the more physiologically relevant CFBE cells. […] FIG. 10 is a table of results for the 15 hit compounds which summarizes many experiments. […] The results for the best 15 compounds from the Prestwick Library, or “Prestwick 15”, are shown FIGS. 8, 9 and 10.
Strongly adhesive Human […] Kidney cells stably expressing both the human macrophage scavenger receptor (HEK293 Griptite, Invitrogen) and F508del CFTR were plated in 96-well plates and transiently transfected with pcDNA3 plasmid encoding a halide sensitive variant of eYFP. After 24-48 h later cells were exposed to 10 μM test compound in triplicate and incubated for an additional 24 h. Cells were stimulated for 20 minutes with a in a buffer containing 25 μM forskolin, 45 μM IBMX and 50 μM genistein final concentration. The high content screening assay was performed using a Cellomics platform. Iodide was added robotically to a final concentration of 50 mM and the resulting decrease in fluorescence was measured. Images were taken at time 0 and stored for subsequent use when calculating a mask so that only those cells that express YFP at time 0 are measured. The quenching was detected in 15 images taken over the course of an experiment lasting 40 seconds. Each test compound was compared to the following two controls: a negative control without drugs to assess photobleaching that may occur when the same field of view is repeatedly imaged, and a positive control with cells treated with a known potentiator. Results were generated from 150-300 cells per well.

ΔF508-CFTR = ΔF508-CFTR (Homo sapiens, UniProt P13569, DEL508-508); type: cell-based; design: which was then ligated into full length pNUT-CFTR linearized using Hpa1 and Pml1; expressed in transfected cells; settings: for hit in screen (class letter) / ΔF508-CFTR correctors identified by highthroughput screening: hit class: BHK cells; for signal in the trafficking assay / ΔF508-CFTR correctors identified by highthroughput screening: hit class: Microsource Discovery library, 20 μM; for signal in the trafficking assay: medium and weak hits; for ΔF508-CFTR correctors identified by highthroughput screening: hit class: 37° C.
Chain of ΔF508-CFTR (P13569 with tags, fused parts or gaps DEL508-508): as above
Experimental: BHK cells expressing 3HA-tagged ΔF508-CFTR between passages 5-8 were seeded in 96-well plates (Corning half area, black-sided, clear bottom) at 15,000 cells per well and incubated with culture medium for 24 h at 37° C. Each well was then treated with a different test compound (80 compounds per plate) for 24 h at 20 μM final concentration. The remaining 16 wells on each plate were used for control conditions. […] Cells were fixed in a 4% paraformaldehyde solution, washed with PBS, and blocked with PBS containing 5% fetal bovine serum (FBS) for 1 hat 4° C.
Blocking solution was replaced with 15 μl of primary antibody solution containing 1% FBS and mouse monoclonal anti-HA antibody (1:150 dilution, Sigma) in PBS. The plates were sealed and left at 4° C. overnight. After three washes with 100 μl PBS, cells were incubated for 1 h with 15 μl of secondary antibody solution containing 1% FBS and anti-mouse IgG conjugated with FITC (1:100 dilution, Sigma) in PBS. Cells were again washed three times with 100 μl of PBS and analyzed in a plate reader (Analyst™ HT96.384, Biosystems; 488 nm excitation/510 nm emission). […] The mean fluorescence of four untreated wells was used as the background signal when calculating deviations of the 80 compound-treated wells. Hits were then cherry-picked into reservoir plates and re-tested in duplicate using the same assay.
BHK cells expressing ΔF508-CFTR were incubated with test compounds (20 μM) for 24 hours at 37° C. in a 96 well format. Plasma membrane expression of ΔF508-CFTR was then assayed by immunofluorescence using a primary antibody directed against the inserted 3HA tag and a secondary antibody conjugated with a fluorophore (FITC). […] The positive compounds were selected and retested in duplicate to obtain an N of 3. At the re-screening stage, the intrinsic fluorescence of each potential hit was also measured and the fluorescent ones were not considered further.
Screening was performed using BHK cells that stably express F508-CFTR bearing three tandem haemagglutinin-epitope tags (3HA) and linker sequences in the fourth extracellular loop after amino acid 901 (Howard et al., 1995; Carlile et al., 2007; Robert et al., 2008). […] Screening was performed using the Prestwick Chemical Library of 1120 high-purity compounds.

[1] = Prestwick library, initial corrector assay
[2] = Prestwick library, initial corrector assay, standard deviations above untreated controls

Compound: CC(C)(C)NCC(O)c1ccc(O)c(CO)c1 (stereo not shown) [Salbutamol]
remaining activity at 10 µM (F508del CFTR): 97% | hit in screen (class letter) (ΔF508-CFTR; [1]): W (Medium and weak hits were defined as compounds giving a cell fluorescence signal that was between 2 and 3 or 1 and 2 standard deviations, respectively, above untreated control wells) | hit in screen (score) (ΔF508-CFTR; [2]): 1.0

Compound: CCN(CC)CC#CCOC(=O)C(O)(c1ccccc1)C1CCCCC1 (stereo not shown) [Oxybutynin chloride]
remaining activity at 10 µM (F508del CFTR): 83% | hit in screen (class letter) (ΔF508-CFTR; [1]): W (Medium and weak hits were defined as compounds giving a cell fluorescence signal that was between 2 and 3 or 1 and 2 standard deviations, respectively, above untreated control wells) | hit in screen (score) (ΔF508-CFTR; [2]): 1.2

Compound: C[C@]12CC[C@@H]3c4ccc(OS(=O)(=O)O)cc4CC[C@H]3[C@@H]1CCC2=O [Estropipate]
remaining activity at 10 µM (F508del CFTR): 83% | hit in screen (class letter) (ΔF508-CFTR; [1]): W (Medium and weak hits were defined as compounds giving a cell fluorescence signal that was between 2 and 3 or 1 and 2 standard deviations, respectively, above untreated control wells) | hit in screen (score) (ΔF508-CFTR; [2]): 1.0

Compound: didectylkhivorin
signal in the trafficking assay (ΔF508-CFTR; 24 hours): consistently elevated signal

Compound: C[N+](C)(C)CCCCCC[N+](C)(C)C.O.O.[Br-].[Br-] [Hexamethonium dibromide dihydrate]
% YFP quench (F508del CFTR): 98% | hit in screen (class letter) (ΔF508-CFTR; [1]): W (Medium and weak hits were defined as compounds giving a cell fluorescence signal that was between 2 and 3 or 1 and 2 standard deviations, respectively, above untreated control wells) | hit in screen (score) (ΔF508-CFTR; [2]): 1.1

Compound: COC1=CC(=O)O[C@@H](/C=C/c2ccccc2)C1 [Kawain]
remaining activity at 10 µM (F508del CFTR): 111% | hit in screen (class letter) (ΔF508-CFTR; [1]): W (Medium and weak hits were defined as compounds giving a cell fluorescence signal that was between 2 and 3 or 1 and 2 standard deviations, respectively, above untreated control wells) | hit in screen (score) (ΔF508-CFTR; [2]): 1.1

Compound: Cyanocobalamin
functional correction in YFP quenching assay (F508del CFTR): not functional | % YFP quench (F508del CFTR): 100% | hit in screen (class letter) (ΔF508-CFTR; [1]): W (Medium and weak hits were defined as compounds giving a cell fluorescence signal that was between 2 and 3 or 1 and 2 standard deviations, respectively, above untreated control wells) | hit in screen (score) (ΔF508-CFTR; [2]): 1.1

Compound: COC(=O)c1c(Cl)c(Cl)c(C(=O)OC)c(Cl)c1Cl [dacthal]
ΔF508-CFTR correctors identified by highthroughput screening: hit class (ΔF508-CFTR; 24 hours): strong hits

Compound: Cc1oncc1C(=O)Nc1ccc(C(F)(F)F)cc1 [Leflunomide]
remaining activity at 10 µM (F508del CFTR): 107% | hit in screen (class letter) (ΔF508-CFTR; [1]): W (Medium and weak hits were defined as compounds giving a cell fluorescence signal that was between 2 and 3 or 1 and 2 standard deviations, respectively, above untreated control wells) | hit in screen (score) (ΔF508-CFTR; [2]): 1.0

Compound: CCn1cc(C(=O)O)c(=O)c2cc(F)c(N3CCNCC3)nc21 [Enoxacin]
remaining activity at 10 µM (F508del CFTR): 84% | hit in screen (class letter) (ΔF508-CFTR; [1]): W (Medium and weak hits were defined as compounds giving a cell fluorescence signal that was between 2 and 3 or 1 and 2 standard deviations, respectively, above untreated control wells) | hit in screen (score) (ΔF508-CFTR; [2]): 1.0

Compound: CCOc1ccc2ccccc2c1C(=O)N[C@@H]1C(=O)N2[C@@H]1SC(C)(C)[C@@H]2C(=O)O [Nafcillin sodium salt monohydrate]
remaining activity at 10 µM (F508del CFTR): 97% | hit in screen (score) (ΔF508-CFTR): W 1.2

Compound: CC(C)Cc1ccc([C@H](C)C(=O)O)cc1 [S-(+)-Ibuorofen]
% YFP quench (F508del CFTR): 91% | hit in screen (score) (ΔF508-CFTR; [2]): 1.1

Compound: CN(Cc1cnc2nc(N)nc(N)c2n1)c1ccc(C(=O)N[C@@H](CCC(=O)O)C(=O)O)cc1 (racemic) [Amethopterin (R, S)]
% YFP quench (F508del CFTR): 109% | hit in screen (class letter) (ΔF508-CFTR; [1]): W (Medium and weak hits were defined as compounds giving a cell fluorescence signal that was between 2 and 3 or 1 and 2 standard deviations, respectively, above untreated control wells) | hit in screen (score) (ΔF508-CFTR; [2]): 1.2

Compound: C[C@]12CCC(=O)C=C1CC[C@@H]1[C@@H]2[C@@H](O)C[C@@]2(C)[C@H]1CC[C@]2(O)C(=O)CO [Hydrocortisone base]
% YFP quench (F508del CFTR): 94% | hit in screen (class letter) (ΔF508-CFTR; [1]): W (Medium and weak hits were defined as compounds giving a cell fluorescence signal that was between 2 and 3 or 1 and 2 standard deviations, respectively, above untreated control wells) | hit in screen (score) (ΔF508-CFTR; [2]): 1.1

Compound: O=C(O)[C@H](O)[C@@H](O)[C@H](O[C@@H]1O[C@H](CO)[C@H](O)[C@H](O)[C@H]1O)[C@H](O)CO [Lactoblonic acid]
% YFP quench (F508del CFTR): 78% | hit in screen (class letter) (ΔF508-CFTR; [1]): W (Medium and weak hits were defined as compounds giving a cell fluorescence signal that was between 2 and 3 or 1 and 2 standard deviations, respectively, above untreated control wells) | hit in screen (score) (ΔF508-CFTR; [2]): 1.2

remaining activity at 10 µM (F508del CFTR): 94%
Compound: NC(=O)N/N=C/c1ccc([N+](=O)[O-])o1 [Nitrofural]

Compound: CC1(C)[C@@H](O[C@H]2O[C@H](C(=O)O)[C@@H](O)[C@H](O)[C@H]2O[C@@H]2O[C@H](C(=O)O)[C@@H](O)[C@H](O)[C@H]2O)CC[C@]2(C)[C@H]3C(=O)C=C4[C@@H]5C[C@@](C)(C(=O)O)CC[C@]5(C)CC[C@@]4(C)[C@]3(C)CC[C@@H]12 [glycyrrhizic acid]
ΔF508-CFTR correctors identified by highthroughput screening: hit class (ΔF508-CFTR; 24 hours): strong hits

Compound: O=C1N[C@@H]2[C@@H](O)[C@@H](O)[C@H](O)[C@@H](CO)N2C1=O [kifunesine]
increase in signal, suitability as positive control for the corrector assay screen (ΔF508-CFTR; kifunesine 100 μM, Sodium 4 Phenylbutyrate 1 mM, curcumin 40 μM, 24 hours): not sufficient to act as a positive control

Compound: 1-deacetoxy-1-oxo-3,7 dideactyl khivorin
signal in the trafficking assay (ΔF508-CFTR; 24 hours): consistently elevated signal

Compound: O=c1c(-c2ccc(O)cc2)coc2cc(O)ccc12 [daidzein]
signal in the trafficking assay (ΔF508-CFTR; 24 hours): consistently elevated signal

Compound: N.N.O=C([O-])C1(C(=O)[O-])CCC1.[Pt+2] [carboplatin]
ΔF508-CFTR correctors identified by highthroughput screening: hit class (ΔF508-CFTR; 24 hours): strong hits

Compound: C[C@]12CC[C@H](O)CC1=CC[C@@H]1[C@@H]2CC[C@]2(C)C(=O)CC[C@@H]12 [dyhydroepiandrosterone]
signal in the trafficking assay (ΔF508-CFTR; 24 hours): consistently elevated signal

Compound: C[C@]12CCC3C(CC[C@H]4C[C@@H](Cl)CC[C@]34C)C1CCC2=O (stereo partly drawn) [3-beta chloroandrostanone]
signal in the trafficking assay (ΔF508-CFTR; 24 hours): consistently elevated signal

Compound: CC(=O)O[C@H]1C[C@@H](OC(C)=O)C(C)(C)[C@@H]2C[C@@H](OC(C)=O)[C@]3(C)[C@H](CC[C@@]4(C)[C@H](c5ccoc5)OC(=O)[C@H]5O[C@@]534)[C@@]12C [khivorin]
signal in the trafficking assay (ΔF508-CFTR; 24 hours): consistently elevated signal

Compound: CN(Cc1cc(Br)cc(Br)c1N)C1CCCCC1 [bromhexine]
signal in the trafficking assay (ΔF508-CFTR; 24 hours): consistently elevated signal

Compound: Cc1[nH]ccc2c1[nH]c1cc(=O)ccc12 [Harmol hydrochloride dihydrate]
remaining activity at 10 µM (F508del CFTR): 92%

Compound: O=C(N[C@H](CO)[C@H](O)c1ccc([N+](=O)[O-])cc1)C(Cl)Cl [chloramphenicol]
ΔF508-CFTR correctors identified by highthroughput screening: hit class (ΔF508-CFTR; 24 hours): strong hits
